How the values were obtained:
[1] = Tamoxifen and metabolite steady state plasma concentrations; conditions: for pharmacokinetics differ by CYP2D6 genotype: 3 and 6 month visits; for 3m or 6m steady state concentrations correlated with age: p-values > 0.11
[2] = tested on: CYP2D6 enzyme activity; assay: 13C-dextromethorphan breath test; assay type: in vivo, human

SMILES: CC/C(=C(\c1ccc(O)cc1)c1ccc(OCCN(C)C)cc1)c1ccccc1 [4HT, 4-hydroxytamoxifen]
- pharmacokinetics differ by CYP2D6 genotype [1]: Neither tamoxifen, NDMT, or 4HT pharmacokinetics were found to differ by CYP2D6 genotype
- 3m or 6m steady state concentrations correlated with age [1]: no evidence

SMILES: COc1ccc2c(c1)[C@]13CCCC[C@@H]1[C@H](C2)N(C)CC3 [DM, Dextromethorphan]
- correlation (r) of baseline DM-BT values with CYP2D6 genotype ([2]; Spearman, p < 0.0001, n=77): 0.55
- correlation (r) of 6m DM-BT values with CYP2D6 genotype ([2]; Spearman, p < 0.001, n=55): 0.55
- correlation (r) of 3m DM-BT values with CYP2D6 genotype ([2]; Spearman, p< 0.0001, n=60): 0.58

SMILES: CC/C(=C(\c1ccc(O)cc1)c1ccc(OCCNC)cc1)c1ccccc1 [Endx, endoxifen]
- correlation (r) of CYP2D6 genotype with 3m Endx Css ([1]; Spearman, p < 0.0001, n=57): 0.47
- correlation (r) of CYP2D6 genotype with 3m Endx/NDMT ratio ([1]; Spearman, p < 0.0001, n=57): 0.60
- correlation (r) of CYP2D6 genotype with 6m Endx/NDMT ratio ([1]; Spearman, p<0.0001, n=54): 0.61
- correlation (r) of CYP2D6 genotype with 6 month Endx Css ([1]; Spearman, p<0.0001, n=54): 0.56
- concentrations of endoxifen, fold lower than that of Lien et al ([1]; comparison with ref 14): ~8 fold
- concentration at 3 months ([1]; human, plasma, oral, 20 mg daily, Median Endx concentration (range), Endx Css, 3 months, CYP2D6 PM/PM, activity score 0, n=2): 5.5 nM
- concentration at 6 months ([1]; human, plasma, oral, 20 mg daily, Median Endx concentration (range), Endx Css, 6 months, CYP2D6 PM/PM, activity score 0, n=2): 6.7 nM
- 3m or 6m steady state concentrations correlated with age [1]: no evidence

SMILES: CC/C(=C(\c1ccccc1)c1ccc(OCCNC)cc1)c1ccccc1 [NDMT, N-desmethyltamoxifen]
- pharmacokinetics differ by CYP2D6 genotype [1]: Neither tamoxifen, NDMT, or 4HT pharmacokinetics were found to differ by CYP2D6 genotype
- 3m or 6m steady state concentrations correlated with age [1]: no evidence

SMILES: Fc1ccc([C@@H]2CCNC[C@H]2COc2ccc3c(c2)OCO3)cc1 [paroxetine]
- baseline DOB30 values lower than at 3 and 6 month visits after paroxetine was discontinued ([2]; one patient who took paroxetine prior to the baseline visit): > 50%

SMILES: CC/C(=C(\c1ccccc1)c1ccc(OCCN(C)C)cc1)c1ccccc1 [tamoxifen, Tamoxifen, reference compound]
- 3m or 6m steady state concentrations correlated with age [1]: no evidence
